Like-named read-outs stand apart in the source and are kept apart here.
Tests used:
[1] = Cytotoxicity determination in HepG2.2.15 cells (CCK-8 assay); type: cell-based; details: human, 6 days treatment, CCK-8, highest concentration 100 uM
Procedure: (§1) HepG2.2.15 (the HepG2.2.15 cell line can be produced by transfection of the HepG2 cell line as described in Sells, Chen, and Acs 1987 (Proc. Natl. Acad. Sci. USA 84: 1005-1009), and the HepG2 cell line is available from ATCC® under number HB-8065™)
(§2) HepG2.2.15 cells were plated into 96-well plate in 2% FBS culture medium at the density of 40,000 cells/well and 5,000cells/well for HBV inhibitory activity and cytotoxicity determination, respectively. After incubation at 37° C., 5% CO2 overnight, cells were treated with medium containing compounds for 6 days with medium and compounds refreshed after 3 days of treatment. Each compound was tested in a 1:3 serial dilutions at 8 different concentrations in triplicate. The highest concentration of the compounds was 10 uM or 1 uM for anti-HBV activity assay and 100 uM for cytotoxicity determination.
Cell viability was determined by CCK-8 assay. After 6 days of compounds treatment, 20 μl CCK-8 reagents were added to each well of cytotoxicity assay plates. Cell plates were incubated at 37° C., 5% CO2 for 2.5 h. The absorbance at 450 nm wavelength and the absorbance at 630 nm wavelength as reference was measured.
(§3) EC50 and CC50 values are calculated by the […] PRISM software.

[2] = system: HBV; test: Anti-viral assay in HepG2.2.15 cells: anti-HBV activity, HBV DNA in culture medium by qPCR; type: cell-based; details: HepG2.2.15 cells, 6 days treatment, HBV DNA by qPCR, read-out: EC50
Procedure: as §1, §2
The change of HBV DNA level induced by the compounds was assessed by quantitative real-time polymerase chain reaction (qPCR). Briefly, the HBV DNA in the culture medium was extracted using QIAamp 96 DNA Blood Kit according to the manual and then quantified by real-time PCR assay using the primers and probe in the table 1 below.
as §3

[3] = Hepatitis B virus, HepG2.2.15, 144 h

Structure (SMILES)	CC50 at 6 days [1] [µM]	EC50 [2, 3] [µM]	EC50 [2] [µM]
CCOC(=O)C1=C(CN2CCN3C(=S)N(C)C[C@@H]3[C@H]2C(=O)O)NC(c2nccs2)=N[C@H]1c1cccc(F)c1Cl (relative stereo) [Compound 19A, (trans)-7-((6-(2-chloro-3-fluorophenyl)-5-(ethoxycarbonyl)-2-(thiazol-2-yl)-3,6-dihydropyrimidin-4-yl)methyl)-2-methyl-3-thioxooctahydro-imidazo[1,5-a]pyrazine-8-carboxylic acid]	89.9	0.0405	
CCOC(=O)C1=C(CN2CCN3C(=S)N(CC(C)(C)C(=O)O)CC3C2)NC(c2nccs2)=NC1c1cccc(F)c1Cl (single isomer, unassigned) [Compound 3A, 3-(7-((6-(2-chloro-3-fluorophenyl)-5-(ethoxycarbonyl)-2-(thiazol-2-yl)-3,6-dihydropyrimidin-4-yl)methyl)-3-thioxohexahydroimidazo[1,5-a]pyrazin-2(3H)-yl)-2,2-dimethylpropanoic acid]	25.2		0.019
CCOC(=O)C1=C(CN2CCN3C(=S)N(CC4(C(=O)O)CC4)CC3C2)NC(c2nccs2)=N[C@H]1c1cccc(F)c1C (single isomer, unassigned) [Compound 9A]	14.9		0.064
COC(=O)C1=C(CN2CCN3C(=S)N(CC(C)(C)C(=O)O)CC3C2)NC(c2nccs2)=NC1c1cccc(F)c1C (single isomer, unassigned) [Compound 10B, 3-(-7-((6-(3-Fluoro-2-methylphenyl)-5-(methoxycarbonyl)-2-(thiazol-2-yl)-3,6-dihydropyrimidin-4-yl)methyl)-3-thioxohexahydroimidazo[1,5-a]pyrazin-2(3H)-yl)-2,2-dimethylpropanoic acid]	23.2	0.0029	
COC(=O)C1=C(CN2CCN3C(=S)N(CC(C)(C)C(=O)O)CC3C2)NC(c2nccs2)=NC1c1ccc(F)c(F)c1Cl (single isomer, unassigned) [Compound 11A, 3-(7-((6-(2-Chloro-3,4-difluorophenyl)-5-(methoxycarbonyl)-2-(thiazol-2-yl)-3,6-dihydropyrimidin-4-yl)methyl)-3-thioxohexahydroimidazo[1,5-a]pyrazin-2(3H)-yl)-2,2-dimethylpropanoic acid]	16.2	0.0019	
COC(=O)C1=C(CN2CCN3C(=S)N(CC(C)(C)C(=O)O)CC3C2)NC(c2nccs2)=NC1c1ccc(F)c(F)c1C (single isomer, unassigned) [Compound 12B, 3-(7-((6-(3,4-Difluoro-2-methylphenyl)-5-(methoxycarbonyl)-2-(thiazol-2-yl)-3,6-dihydropyrimidin-4-yl)methyl)-3-thioxohexahydroimidazo[1,5-a]pyrazin-2(3H)-yl)-2,2-dimethylpropanoic acid]	14.5	0.002	
CCOC(=O)C1=C(CN2CCN3C(=S)N(CC(C)(C)C(=O)O)CC3C2)NC(c2nccs2)=NC1c1ccc(F)cc1Br (single isomer, unassigned) [Compound 13A, 3-(7-((6-(2-Bromo-4-fluorophenyl)-5-(ethoxycarbonyl)-2-(thiazol-2-yl)-3,6-dihydropyrimidin-4-yl)methyl)-3-thioxohexahydroimidazo[1,5-a]pyrazin-2(3H)-yl)-2,2-dimethylpropanoic acid]	14.7	0.001	
CCOC(=O)C1=C(CN2CCN3C(=S)N(CC(C)(C)C(=O)O)CC3C2)NC(c2nccs2)=NC1c1ccc(F)c(F)c1Cl (single isomer, unassigned) [Compound 14A, 3-(7-((6-(2-Chloro-3,4-difluorophenyl)-5-(ethoxycarbonyl)-2-(thiazol-2-yl)-3,6-dihydropyrimidin-4-yl)methyl)-3-thioxohexahydroimidazo[1,5-a]pyrazin-2(3H)-yl)-2,2-dimethylpropanoic acid]	9.6	0.0012	
CCOC(=O)C1=C(CN2CCN3C(=S)N(CC(C)(C)C(=O)O)C[C@@H]3C2)NC(c2nccs2)=N[C@@H]1c1ccc(F)c(F)c1C (single isomer, unassigned) [Compound 15A, 3-(7-((6-(3,4-Difluoro-2-methylphenyl)-5-(ethoxycarbonyl)-2-(thiazol-2-yl)-3,6-dihydropyrimidin-4-yl)methyl)-3-thioxohexahydroimidazo[1,5-a]pyrazin-2(3H)-yl)-2,2-dimethylpropanoic acid]	25.6	0.0046	
CCOC(=O)C1=C(CN2CCN3C(=S)N(CC(C)(C)C(=O)O)C[C@@H]3C2)NC(c2nccs2)=N[C@H]1c1ccc(F)c(F)c1C (single isomer, unassigned) [Compound 15B, 3-(7-((6-(3,4-Difluoro-2-methylphenyl)-5-(ethoxycarbonyl)-2-(thiazol-2-yl)-3,6-dihydropyrimidin-4-yl)methyl)-3-thioxohexahydroimidazo[1,5-a]pyrazin-2(3H)-yl)-2,2-dimethylpropanoic acid]	45	0.3	
COC(=O)C1=C(CN2CCN3C(=S)N(CC(C)(C)C(=O)O)C[C@@H]3C2)NC(c2nccs2)=N[C@@H]1c1ccc(F)cc1Br (single isomer, unassigned) [Compound 16A, 3-(7-((6-(2-Bromo-4-fluorophenyl)-5-(methoxycarbonyl)-2-(thiazol-2-yl)-3,6-dihydropyrimidin-4-yl)methyl)-3-thioxohexahydroimidazo[1,5-a]pyrazin-2(3H)-yl)-2,2-dimethylpropanoic acid]	15.3	0.0045	
COC(=O)C1=C(CN2CCN3C(=S)N(CC(C)(C)C(=O)O)C[C@@H]3C2)NC(c2nccs2)=N[C@H]1c1ccc(F)cc1Br (single isomer, unassigned) [Compound 16B, 3-(7-((6-(2-Bromo-4-fluorophenyl)-5-(methoxycarbonyl)-2-(thiazol-2-yl)-3,6-dihydropyrimidin-4-yl)methyl)-3-thioxohexahydroimidazo[1,5-a]pyrazin-2(3H)-yl)-2,2-dimethylpropanoic acid]	29.5	0.808	
CCOC(=O)C1=C(CN2CCN3C(=S)N(CC4(C(=O)O)CC4)C[C@@H]3C2)NC(c2nccs2)=N[C@H]1c1cccc(F)c1Cl (single isomer, unassigned) [Compound 18B, 1-((7-((6-(2-chloro-3-fluorophenyl)-5-(ethoxycarbonyl)-2-(thiazol-2-yl)-3,6-dihydropyrimidin-4-yl)methyl)-3-thioxohexahydroimidazo[1,5-a]pyrazin-2(3H)-yl)methyl)cyclopropane-1-carboxylic acid]	13	0.0015	
CCOC(=O)C1=C(CN2CCN3C(=S)N(C)C[C@@H]3[C@H]2C(=O)O)NC(c2nccs2)=N[C@H]1c1cccc(F)c1Cl (single isomer, unassigned) [Compound 19B, (trans)-7-((6-(2-chloro-3-fluorophenyl)-5-(ethoxycarbonyl)-2-(thiazol-2-yl)-3,6-dihydropyrimidin-4-yl)methyl)-2-methyl-3-thioxooctahydro-imidazo[1,5-a]pyrazine-8-carboxylic acid]	51.2	0.0018	
COC(=O)C1=C(CN2CCN3C(=S)N(CC(C)(C)C(=O)O)C[C@@H]3C2)NC(c2nccs2)=N[C@H]1c1cccc(F)c1Cl (single isomer, unassigned) [Compound 20A, 3-(7-((6-(2-chloro-3-fluorophenyl)-5-(methoxycarbonyl)-2-(thiazol-2-yl)-3,6-dihydropyrimidin-4-yl)methyl)-3-thioxohexahydroimidazo[1,5-a]pyrazin-2(3H)-yl)-2,2-dimethylpropanoic acid]	16.4	0.0035	
CCOC(=O)C1=C(CN2CCN3C(=S)N(CC(C)(C)C(=O)O)C[C@@H]3C2)NC(c2nccs2)=N[C@H]1c1ccc(F)cc1Cl (single isomer, unassigned) [Compound 21A, 3-(7-((6-(2-chloro-4-fluorophenyl)-5-(ethoxycarbonyl)-2-(thiazol-2-yl)-3,6-dihydropyrimidin-4-yl)methyl)-3-thioxohexahydroimidazo[1,5-a]pyrazin-2(3H)-yl)-2,2-dimethylpropanoic acid]	15.2	0.006	
CCOC(=O)C1=C(CN2CCN3C(=S)N(CC(C)(C)C(=O)O)C[C@@H]3C2)NC(c2ncc(F)cc2F)=N[C@H]1c1cccc(F)c1C (single isomer, unassigned) [Compound 22A, 3-(7-((2-(3,5-difluoropyridin-2-yl)-5-(ethoxycarbonyl)-6-(3-fluoro-2-methylphenyl)-3,6-dihydropyrimidin-4-yl)methyl)-3-thioxohexahydroimidazo-[1,5-a]pyrazin-2(3H)-yl)-2,2-dimethylpropanoic acid]	12.8	0.0089	
CCOC(=O)C1=C(CN2CCN3C(=S)N([C@@H]4CC[C@H](C(=O)O)C4)CC3C2)NC(c2nccs2)=N[C@H]1c1cccc(F)c1C (single isomer, unassigned) [Compound 24A]	15.5		0.0391

Source: patent US20230165865A1, “HETEROARYLDIHYDROPYRIMIDINE DERIVATIVES AND METHODS OF TREATING HEPATITIS B INFECTIONS” (Janssen Pharmaceutica NV, priority 2018, published 2023)
